Among the data in the METLIN SMRT retention time set (Domingo-Almenara et al. 2019) are RP-LC retention time values, retold here.

The nature of the series: gradient 5% acetonitrile 3 min, to 50% in 2 min, to 85% in 15 min, held 3 min, 100 µL/min. The following applies: column: Zorbax Extend-C18 2.1 x 50 mm; eluents: water / acetonitrile, 0.1% formic acid. A digest of the protocol:
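Each retention time is based on an adduct peak selected computationally and verified by manual inspection. Measurements used HPLC–quadrupole time-of-flight mass spectrometry in positive and negative ionization mode on mixtures of ~100 pure standards. Chromatography ran on a Zorbax Extend-C18 column (2.1 × 50 mm, 1.8 μm) at 100 μL/min with water and acetonitrile, each containing 0.1% formic acid, and dead and dwell volumes of 40 μL and 900 μL.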
The molecule `CC(=O)N(Cc1nn(C)c2c1CN(S(=O)(=O)c1ccc(Cl)cc1)CC2)c1ccccc1` came in with an RP-LC retention time of 844 s.

`CC(C)(C)NC(=O)c1ccc(-c2nnc3ccc(NC(=O)C4CC4)cn23)cc1`: the RP-LC retention time was found to be 731 s.

Take `Cc1cc(C)n2c(Nc3c(C)cccc3C)c(-c3ccc(O)cc3)nc2n1`: the RP-LC retention time came to 646 s.

`COc1ccc(NC(=O)N2CCCC(Cn3cnc4cccnc43)C2)cc1` (centres undefined) yielded an RP-LC retention time of 610 s.

Regarding `Cc1cccc(NC(=O)C2CCN(S(=O)(=O)c3cc(C(=O)N4CCCC4)n(C)c3)CC2)c1C`, the RP-LC retention time was 843 s.

`O=C(NCc1ccco1)C(=O)NCC(c1cccnc1)N1CCOCC1` (centres undefined) displayed an RP-LC retention time of 568 s.

Regarding `Cc1ccc(Cc2nc(CCNC(=O)C3CCN(S(=O)(=O)c4ccc(C)cc4)CC3)n[nH]2)cc1`, the RP-LC retention time worked out at 769 s.

In turn, `O=C(Cc1ccc(NC(=O)CSCc2ccccc2)cc1)NCC(F)(F)F` had an RP-LC retention time of 801 s.

Turning to `CCOc1ccc(N2CC(c3nc4ccccc4n3CCN3CCOCC3)CC2=O)cc1` (centres undefined), the RP-LC retention time was 618 s.

With `CCOC(=O)Cn1cccc1-c1nc(-c2ccncc2)no1`, the RP-LC retention time is 844 s.

For the molecule `COc1ccc(NC(=O)CSc2cc(N3CCN(c4ccccc4F)CC3)ncn2)cc1`, the RP-LC retention time came out at 1010 s.

For `Cc1ccc(S(=O)(=O)N2C[C@H]3CN(C(=O)NCCc4ccccc4)C[C@@H](C2)O3)cc1`, the RP-LC retention time came out at 834 s.

Turning to `CCC(C(=O)NC1CC1)n1nc(C)c2c(C)n(-c3ccccc3)nc2c1=O` (centres undefined), the RP-LC retention time was found to be 735 s.

`CC(C)C(=O)Nc1nc(-c2ccc(F)cc2)cs1` had an RP-LC retention time of 916 s.

In the case of `Cc1nc(NC(=O)c2ccccc2)nc2cc3c(cc12)OCO3`, the RP-LC retention time is 688 s.

Take `O=C(NC1CC1)c1cc(-c2cccc(F)c2)ns1`: the RP-LC retention time was 882 s.

Regarding `Cc1ccc(CNC(=O)Nc2c(-c3ccccc3)nc3ccccn23)cc1`, the RP-LC retention time stood at 662 s.

Turning to `Cc1cc(N(C)C)n2nc(CN3CCN(c4cccc(C)c4C)CC3)nc2n1`, the RP-LC retention time was determined as 655 s.

On to `Cc1ccc(C)c(N2CCN(S(=O)(=O)c3cc(-c4cc(C(F)(F)F)[nH]n4)sc3C)CC2)c1`, for which the RP-LC retention time is 1300 s.

Take `COc1ccc(NC(=O)N2CCN(c3nc4cccnc4s3)CC2)cc1`: the RP-LC retention time is 690 s.

Consider `CCc1nc(OCC(=O)NCc2ccc(N(C)C)cc2)c2c(C)c(C)oc2n1`, for which the RP-LC retention time came to 689 s.

`Cc1ccc(N2CC(c3noc(-c4ccc(C)nc4)n3)CC2=O)cc1` (centres undefined) showed an RP-LC retention time of 799 s.

Consider `Cc1cc(NS(=O)(=O)c2cn(C(C)C)c3ncccc23)ccc1F`, for which the RP-LC retention time is 948 s.

Regarding `Cn1cc(CC(=O)N2CCN(S(=O)(=O)C3CC3)CC2)c2ccccc21`, the RP-LC retention time was 577 s.

`O=C(c1nnc(-c2ccc(S(=O)(=O)N3CCCCC3)cc2)o1)N1CCCCC1` gave an RP-LC retention time of 956 s.

Turning to `CCN1C=C(C(=O)OCc2cc(F)ccc2F)C(C)=NS1(=O)=O`, the RP-LC retention time came out at 975 s.

Molecule `Cc1noc(C)c1C1CCCN1C(=O)Nc1ccccc1Br` (centres undefined) returned an RP-LC retention time of 836 s.

The molecule `CCN1N=C(C(=O)N2CCOCC2)S(=O)(=O)c2cc(Cl)ccc21` returned an RP-LC retention time of 760 s.

`CCOc1ccc(S(=O)(=O)Nc2ccc(-c3cn4ccc(C)nc4n3)cc2)c(OCC)c1` displayed an RP-LC retention time of 691 s.

With `O=C(Cc1cccc(F)c1)Nc1ccc2c(c1)CCC(=O)N2`, the RP-LC retention time was determined as 650 s.

As for `Cc1ccc(C(=O)Nc2nc(-c3ccccc3)cs2)o1`, the RP-LC retention time was determined as 973 s.

In turn, `CSc1cccc(NC(=O)Cn2cc(-c3ccccc3)c3ncn(C4CC4)c(=O)c32)c1` registered an RP-LC retention time of 1020 s.

The molecule `COc1ccc(CCC(=O)NCc2cccnc2OC)cc1` gave an RP-LC retention time of 749 s.

In turn, `CC(=O)N1CCc2ccc(C(=O)NC3CCCCCC3)cc21` had an RP-LC retention time of 778 s.

As to `O=C1Nc2ccccc2SC1C(=O)N1CCC(C(=O)N2CCN(c3ccccc3)CC2)CC1` (centres undefined), the RP-LC retention time amounted to 766 s.

For the molecule `Cc1ccnc(N2CCCC(C(=O)NCc3ccc(C)o3)C2)n1` (centres undefined), the RP-LC retention time was 694 s.

In turn, `O=C(Cn1ccc2ccc(N3CCOCC3)nc21)N1CCC(Cc2ccccc2)CC1` came in with an RP-LC retention time of 1050 s.

In turn, `O=C(CCC(=O)N1CCN(c2ccc(=O)n(-c3ccc(Cl)cc3)n2)CC1)N1CCOCC1` yielded an RP-LC retention time of 659 s.

Molecule `CCn1c(CN2CCN(S(C)(=O)=O)CC2)nc2cc(NC(=O)C(C)C)ccc21` showed an RP-LC retention time of 612 s.

`Cc1cc(C)cc(N2C(=O)CN(S(C)(=O)=O)CC2(C)C(=O)NCc2ccc(Cl)cc2)c1` (centres undefined) returned an RP-LC retention time of 919 s.

`COc1ccc(S(=O)(=O)Nc2ccc(C)n(CC(=O)O)c2=O)cc1` showed an RP-LC retention time of 678 s.

As for `COc1ccccc1CC(=O)N1CCN(c2ncnc3c2CCC3)CC1`, the RP-LC retention time worked out at 621 s.

For `Cc1cc(-c2cc(S(=O)(=O)NCCCOC(C)C)c(C)s2)n[nH]1`, the RP-LC retention time is 770 s.

The molecule `CC(C)(C)c1ccc(-c2noc(Cn3c(=O)n(Cc4ccccc4)c(=O)c4sccc43)n2)cc1` returned an RP-LC retention time of 1330 s.

`CC(C)c1nc2cccnc2n1CCN1CCN(C(=O)Nc2ccccc2Br)CC1` yielded an RP-LC retention time of 603 s.

With `Cc1ccc(C2c3cc(OCC(=O)N4CCCC4)ccc3CCN2C(=O)C2CC2)cc1` (centres undefined), the RP-LC retention time came to 824 s.

As for `COc1ccc(NC(=O)Cn2cccc2-c2nnc(-c3ccccc3)o2)cc1OC`, the RP-LC retention time was determined as 850 s.

Take `CCOc1ccc2nc(Nc3nc(C)cc(C(F)(F)F)n3)nc(C)c2c1`: the RP-LC retention time is 753 s.

Regarding `Cc1ccc(C)c(CN2C[C@@H]3C(=O)N(C)C(=O)[C@@H]3C2)c1`, the RP-LC retention time is 611 s.

Molecule `CCN1C(=O)COc2ccc(-c3noc(C4CCCN(S(=O)(=O)c5ccc(C)cc5)C4)n3)cc21` (centres undefined) came in with an RP-LC retention time of 1100 s.

Molecule `COC(=O)c1ccc(-c2nc3cnccn3c2NC2CCCC2)cc1` returned an RP-LC retention time of 877 s.

On to `Cc1nn(-c2ccccc2)c(C)c1S(=O)(=O)N1CCC(C(=O)Nc2cccc(F)c2)CC1`, for which the RP-LC retention time was 986 s.

Molecule `O=C(NCc1csc(C2CCN(C(=O)c3ccc(F)c(F)c3)CC2)n1)C1CCC1` gave an RP-LC retention time of 742 s.

As for `Cc1ccccc1OCc1ccc(-c2nc(C#N)c(NCCCN(C)C)o2)o1`, the RP-LC retention time was 727 s.

Regarding `COC(=O)c1ccc(-c2nc3cnccn3c2Nc2ccc(OC)c(OC)c2)cc1`, the RP-LC retention time was 769 s.

`CNC(=O)[C@@H](NC(=O)[C@H](CC(C)C)[C@H](O)C(=O)NO)C(C)(C)C` had an RP-LC retention time of 620 s.

`COc1cccc(S(=O)(=O)N2CCC(c3nc(C(=O)N(C)C)c(C)o3)CC2)c1`: the RP-LC retention time is 794 s.

As for `O=C(Nc1ccc(Cl)cc1)N1CCc2nc(-c3ccc(Cl)cc3)ncc2C1`, the RP-LC retention time was 1130 s.

Molecule `COc1ccc(NC(=O)C2CC(=O)N(c3n[nH]c4ccccc34)C2)cn1` (centres undefined) had an RP-LC retention time of 646 s.
